Read-outs that look alike come from different tables or passages of the source.
Assays:
[1] = test system: NPC1 human fibroblast GM03123 cells; test: Filipin microscopy assay of free cholesterol in lysosomal storage organelles (LSO ratio); format: cell-based; conditions: for EC50: read-out: EC50 for correcting the NPC1 phenotype; for effect on NPC1 phenotype: after 4 hours
Description: Images were acquired with wide-field microscopy at 10× magnification. […] The effect of each HDACi on NPC1 human fibroblasts was then determined at varying concentrations and times. […] Briefly, NPC1 human fibroblast GM03123 cells were seeded in five 384-well plates in growth medium. […] HDACi were allowed to remain in the culture medium for 72, 48, 24, 4, and 0 hours of treatment. For the control, cells were treated with a corresponding concentration of dimethyl sulfoxide (DMSO). HDACi were added to five wells for each concentration. […] Images were analyzed to obtain an LSO ratio and data were normalized to corresponding DMSO-treated cells.

[2] = test system: NPC1 human fibroblast GM18453 cells; test: Filipin microscopy assay of free cholesterol in LSO (LSO ratio); format: cell-based
Description: Next, the effect of HDACi on NPC1I1061T homozygous NPC1 human fibroblasts (GM18453) and on NPC2 human fibroblasts (GM18445) was evaluated. Briefly, NPC1 human fibroblast GM18453 cells and NPC2 human fibroblast GM18455 cells were seeded in five 384-well plates in growth medium. […] Cells were incubated at 37° C. in the presence of 5% CO2 atmosphere for 48 hours. […] Images were analyzed to obtain an LSO ratio and data were normalized to corresponding DMSO-treated cells. […] The dotted horizontal lines indicate mean values for the solvent control, and error bars represent the standard error.
Briefly, NPC1 human fibroblast GM18453 cells and NPC2 human fibroblast GM18455 cells were seeded in five 384-well plates in growth medium. […] Cells were incubated at 37° C. in the presence of 5% CO2 atmosphere for 48 hours. […] Images were analyzed to obtain an LSO ratio, and data were normalized to corresponding DMSO-treated cells. […] The dotted horizontal lines indicate mean values for the solvent control, and the error bars represent the standard error.

HDAC2 = HDAC2 (Homo sapiens, UniProt Q92769); conditions: read-out: Inhibition constant Ki HDAC2; cited from earlier work
Chain of HDAC2 (Q92769 whole entry, species assumed): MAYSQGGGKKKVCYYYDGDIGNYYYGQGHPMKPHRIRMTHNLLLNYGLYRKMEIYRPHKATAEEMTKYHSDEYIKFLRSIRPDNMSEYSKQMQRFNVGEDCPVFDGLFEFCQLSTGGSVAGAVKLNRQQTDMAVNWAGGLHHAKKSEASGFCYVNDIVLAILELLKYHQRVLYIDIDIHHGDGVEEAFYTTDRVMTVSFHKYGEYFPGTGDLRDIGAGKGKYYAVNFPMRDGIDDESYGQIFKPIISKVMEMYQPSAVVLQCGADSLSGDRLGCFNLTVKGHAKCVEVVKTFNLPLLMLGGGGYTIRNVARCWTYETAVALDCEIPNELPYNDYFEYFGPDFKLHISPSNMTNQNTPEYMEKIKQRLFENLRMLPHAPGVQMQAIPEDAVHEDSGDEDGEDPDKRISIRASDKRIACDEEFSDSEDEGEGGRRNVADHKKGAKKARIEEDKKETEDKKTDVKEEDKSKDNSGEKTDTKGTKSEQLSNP

[3] = Homo sapiens, Fibroblast, after 48 hours

SMILES: CCCCOc1ccc(CC(=O)NO)cc1 [Bufexamac]
- correction of the NPC1 phenotype ([1]; various concentrations (0.04-10 μM) and times (4-72 hours), GM03123): no correction of the NPC1 phenotype

SMILES: CC(=O)Nc1ccc(C(=O)Nc2ccccc2N)cc1 [CL-994]
- EC50 [1, 3]: ~1000 nM
- effect on NPC1 phenotype ([1]; GM03123): no effect

SMILES: Cc1[nH]c2ccccc2c1CCNCc1ccc(/C=C/C(=O)NO)cc1 [LBH-589, panobinostat]
- EC50 ([1]; Homo sapiens, Fibroblast, 48 h): < 4 nM
- concentration of highest efficacy in correcting the NPC1 phenotype ([2]; 48-hour treatment, GM18453): 37 nM

SMILES: COc1ccc(Cn2ccc3ccc(C(=O)NO)cc32)cc1 [PCI-34051]
- correction of the NPC1 phenotype ([2]; 40 nM to 10 μM, 48 hours, NPC1 human fibroblasts (FIG. 6)): no correction of the NPC1 phenotype

SMILES: O=C(CCCCCCC(=O)Nc1cccnc1)NO [Pyroxamide]
- EC50 [1, 3]: ~1000 nM
- Ki (HDAC2): 3.6 nM

SMILES: O=C(CCCCCCC(=O)Nc1ccccc1)NO [SAHA, vorinostat]
- effect on NPC1 phenotype ([1]; GM03123): no effect

SMILES: CC(/C=C/C(=O)NO)=C\[C@@H](C)C(=O)c1ccc(N(C)C)cc1 [TSA, trichostatin A]
- EC50 ([1]; after 48 hours): ~20 nM

— US9333222B2, “Histone deacetylase inhibitors as therapeutic agents for Niemann-Pick type C disease” (University of Notre Dame du Lac, priority 2009, dated 2016)
